The values below come from article PMC11593696, “Discovery of Potent Benzothiazole Inhibitors of Oxidoreductase NQO2, a Target for Inflammation and Cancer” (International Journal of Molecular Sciences, 2024).

Read-outs that look alike come from different tables or passages of the source.

One data set has as its target NQO2. The note with it: read-out: dissociation constant; cited from earlier work.
For another data set, the target named is T1, recombinant human NQO2 (Homo sapiens, UniProt P16083).
T1 sequence (P16083 1-231): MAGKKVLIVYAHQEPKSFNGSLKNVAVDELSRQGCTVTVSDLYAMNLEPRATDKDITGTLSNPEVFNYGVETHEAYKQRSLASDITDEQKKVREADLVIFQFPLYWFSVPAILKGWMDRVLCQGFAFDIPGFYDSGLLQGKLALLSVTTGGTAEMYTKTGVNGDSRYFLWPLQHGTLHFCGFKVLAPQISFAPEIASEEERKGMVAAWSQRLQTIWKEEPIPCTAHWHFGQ
In words: NQO2 enzyme inhibition assay (DCPIP substrate, NRH or EPR co-substrate). It is filed as biochemical. On the procedure: In this assay, dichlorophenolindophenol (DCPIP) was used as a substrate for NQO2. NRH (SI or EP0152R) was used as the co-substrate for the enzyme.
The NQO2 enzyme assay was carried out using a […] GO spectrophotometer by measuring the absorbance of DCPIP at 600 nm. NRH [31] or EPR were used as co-substrates. The experiment was performed using a 96-well plate with a […] final volume using phosphate buffer (50 mM, pH 7.4). The final concentrations were DCPIP 40 µM and NRH or EPR 200 µM. The final enzyme concentration was 100 ng. The assay was performed at 37 °C and initiated through the addition of NQO2. The initial rates of the enzyme reactions were calculated from the curve by taking the initial slopes of the reactions using the formula (ΔAb/ΔTime). The assay of inhibitors was carried out using the same assay conditions. […] Each experiment was performed in triplicate. Rates were converted to the percentage of enzyme activity, and IC50 values were calculated using GraphPad Prism 7.03 software using the non-linear regression function. IC50 values were determined as a 50% decrease in NQO2 activity.

Where [1] appears, read: inhibition of NQO2, DCPIP 40 µM, NRH or EPR 200 µM, phosphate buffer pH 7.4, 37 °C, triplicate, read-out: IC50 (µM) ± SD.
The mark [2] stands for this setting: DCPIP substrate, NRH co-substrate, read-out: IC50 for inhibition of NQO2.

With `Oc1ccc(/C=C/c2cc(O)cc(O)c2)cc1` [Resveratrol, trans-3,4’,5-trihydroxystilbene], the Kd at NQO2 is 0.035 µM.

In turn, `COc1cc(OC)cc(-c2nc3ccc(Cl)cc3s2)c1` [Compound 6, 6-Chloro-2-(3,5-dimethoxyphenyl)benzo[d]thiazole] showed a melting point of 150 to 151 °C. Moreover, the IC50 on recombinant human NQO2 (setting [1]) was 82.93 ± 0.04 µM.

`COc1cc(OC)cc(-c2nc3ccc(C#N)cc3s2)c1` [Compound 7, 2-(3,5-Dimethoxyphenyl)benzo[d]thiazole-6-carbonitrile] registered a melting point of 222 to 224 °C. In addition, on recombinant human NQO2 (setting [1]), the IC50 is over 100 µM.

Compound `COc1ccc(-c2nc3ccc(OC)cc3s2)c(OC)c1` [Compound 16, 2-(2,4-Dimethoxyphenyl)-6-methoxybenzo[d]thiazole] gave a melting point of 150 to 151 °C. Moreover, the IC50 at recombinant human NQO2 (setting [1]) came out at 5.86 ± 0.07 µM.

For `COc1ccc(-c2nc3ccc(C#N)cc3s2)c(OC)c1` [Compound 20, 2-(2,4-Dimethoxyphenyl)benzo[d]thiazole-6-carbonitrile], the melting point was in the range of 235 to 237 °C. Moreover, on recombinant human NQO2 (setting [1]), the 50% inhibitory concentration (IC50) is over 100 µM.

Take `COc1cc(-c2nc3ccc(F)cc3s2)cc(OC)c1OC` [Compound 45, 6-Fluoro-2-(3,4,5-trimethoxyphenyl)benzo[d]thiazole]: the melting point lay in the range of 156 to 158 °C. Further, at recombinant human NQO2 (setting [1]), the IC50 was 0.717 ± 0.015 µM.

For the compound `COc1ccc(-c2nc3ccc(Br)cc3s2)c(OC)c1` [Compound 17, 6-Bromo-2-(2,4-dimethoxyphenyl)benzo[d]thiazole], the melting point was in the range of 148 to 149 °C. Moreover, the IC50 at recombinant human NQO2 (setting [2]) was found to be 56.9 µM. Also, at recombinant human NQO2 (setting [1]), the IC50 amounted to 56.9 ± 0.02 µM.

`COc1ccc(-c2nc3ccc(Cl)cc3s2)c(OC)c1` [Compound 19, 6-Chloro-2-(2,4-dimethoxyphenyl)benzo[d]thiazole] returned a melting point of 170 to 171 °C. The IC50 on recombinant human NQO2 (setting [2]) was 33.5 µM. Besides, on recombinant human NQO2 (setting [1]), the 50% inhibitory concentration (IC50) was 33.55 ± 0.02 µM.

Regarding `COc1cc(OC)cc(-c2nc3ccc([N+](=O)[O-])cc3s2)c1` [Compound 10, 2-(3,5-Dimethoxyphenyl)-6-nitrobenzo[d]thiazole], the melting point was in the range of 199 to 200 °C. In addition, the half-maximal inhibitory concentration (IC50) on recombinant human NQO2 (setting [1]) turned out to be 93.44 ± 0.02 µM.

`COc1cc(OC)cc(-c2nc3ccc(NC(=O)c4ccccc4)cc3s2)c1` [Compound 13, N-(2-(3,5-Dimethoxyphenyl)benzo[d]thiazol-6-yl)benzamide] displayed a melting point of 138 to 140 °C. On recombinant human NQO2, the “inhibition of NQO2 enzymatic activity, in words” value is given as “further loss of activity”. Also, the IC50 on recombinant human NQO2 (setting [1]) worked out at 8.44 ± 0.03 µM.

Regarding `COc1ccc(-c2nc3ccc(F)cc3s2)c(OC)c1` [Compound 21, 2-(2,4-Dimethoxyphenyl)-6-fluorobenzo[d]thiazole], the melting point was 157 to 158 °C. Moreover, the concentration for half-maximal inhibition (IC50) at recombinant human NQO2 (setting [1]) was 3.51 ± 0.08 µM.

Consider `COc1cc(OC)cc(-c2nc3ccc(I)cc3s2)c1` [Compound 9, 2-(3,5-Dimethoxyphenyl)-6-iodobenzo[d]thiazole], for which the melting point is 150 to 152 °C. Further, the IC50 on recombinant human NQO2 (setting [1]) was 2.46 ± 0.01 µM.

Compound `COc1cc(OC)cc(C(=O)Nc2ccc3nc(-c4cc(OC)cc(OC)c4)sc3c2)c1` [Compound 14, N-(2-(3,5-Dimethoxyphenyl)benzo[d]thiazol-6-yl)-3,5-dimethoxybenzamide] came in with a melting point of 159 to 162 °C. Besides, at recombinant human NQO2, the “inhibition of NQO2 enzymatic activity, in words” value is recorded as “further loss of activity”. For the same compound, at recombinant human NQO2 (setting [1]), the concentration for half-maximal inhibition (IC50) was determined as 1.36 ± 0.06 µM.

The compound `COc1cc(-c2nc3ccc([N+](=O)[O-])cc3s2)cc(OC)c1OC` [Compound 47, 6-Nitro-2-(3,4,5-trimethoxyphenyl)benzo[d]thiazole] showed a melting point of 200 to 201 °C. Also, the 50% inhibitory concentration (IC50) at recombinant human NQO2 (setting [1]) was 0.754 ± 0.008 µM.

`COc1cc(OC)cc(-c2nc3ccc(NC(C)=O)cc3s2)c1` [Compound 12, N-(2-(3,5-Dimethoxyphenyl)benzo[d]thiazol-6-yl)acetamide] displayed a melting point of 179 to 181 °C. Further, the half-inhibitory concentration (IC50) at recombinant human NQO2 (setting [2]) is 0.605 µM. Also, the 50% inhibitory concentration (IC50) on recombinant human NQO2 (setting [1]) was 0.605 ± 0.06 µM.

`Oc1ccc2nc(-c3cc(O)c(O)c(O)c3)sc2c1` [Compound 52, 6-Hydroxy-2-(3,4,5-trihydroxyphenyl)benzo[d]thiazole] returned a melting point of 240 to 242 °C. The half-inhibitory concentration (IC50) at recombinant human NQO2 (setting [1]) is 0.2 ± 0.01 µM.

The compound `COc1cc(-c2nc3ccc(NC(=O)c4ccccc4)cc3s2)cc(OC)c1OC` [Compound 50, N-(2-(3,4,5-Trimethoxyphenyl)benzo[d]thiazol-6-yl)benzamide] registered a melting point of 205 to 207 °C. Also, the IC50 at recombinant human NQO2 (setting [2]) came to 3.17 µM. Also, at recombinant human NQO2 (setting [1]), the 50% inhibitory concentration (IC50) turned out to be 3.17 ± 0.031 µM.

For orientation: melting point means the temperature of the solid-liquid transition. By IC50 is commonly meant the concentration that inhibits the measured activity by half.
